The subject of test [1] is apomorphine-induced climbing. Put plainly: climbing mice assay (apomorphine-induced climbing, antipsychotic activity). The test is classed as in vivo, CK-1 male mice. The conditions noted are these: Mus musculus, ip, read-out: Antipsychotic Activity ED50.
Test [2] relates to phenyl-para-quinone induced writhes. Put plainly: animal or person. It counts as in vivo, mice. To be noted: Mus musculus, sc, read-out: Analgesic Activity (ED50).

Where two headings read alike, the source gives them in different places.

In the case of `O=C(CCCN1CCC(O)(c2ccc(Cl)cc2)CC1)c1ccc(F)cc1` [haloperidol], in test [1], the 50% effective dose (ED50) is 0.11 mg/kg.
In the case of `CC(C)=CCN1CCC2(C)c3cc(O)ccc3CC1C2C` (stereo not shown) [pentazocin], in test [2], the ED50 came out at 1.3 mg/kg.
Same read-out and setting: the same measure for `CCC(=O)O[C@](Cc1ccccc1)(c1ccccc1)[C@H](C)CN(C)C` [propoxyphene]: 3.9 mg/kg.
Turning to `CCN1CCCC1CNC(=O)c1cc(S(N)(=O)=O)ccc1OC` (stereo not shown) [sulpiride], the 50% effective dose (ED50) in test [1] (mice, intraperitoneal, 30 minutes prior to apomorphine 1.5 mg/kg subcutaneously, climbing scored at 10, 20 and 30 minutes, linear regression) stood at 4.5 mg/kg.
